Measured values reported in US8067447B2, “Modulators of glucocorticoid receptor, AP-1, and/or NF-κB activity and use thereof” (Bristol-Myers Squibb Company, priority 2006, dated 2011).
Like-named read-outs stand apart in the source and are kept apart here.

Tests used:
[1] = biological target: T1, human glucocorticoid receptor (Homo sapiens, UniProt P04150); assay: Glucocorticoid Receptor Binding Assay (I), fluorescence polarization competitor kit (Fluormone GS Red); details: purified human recombinant full-length GR 2 nM, 1 nM Fluormone GS Red, FP
T1 construct: purified human recombinant full-length glucocorticoid receptor (2 nM); purchased Invitrogen Part #2893
T1 sequence (P04150 1-777): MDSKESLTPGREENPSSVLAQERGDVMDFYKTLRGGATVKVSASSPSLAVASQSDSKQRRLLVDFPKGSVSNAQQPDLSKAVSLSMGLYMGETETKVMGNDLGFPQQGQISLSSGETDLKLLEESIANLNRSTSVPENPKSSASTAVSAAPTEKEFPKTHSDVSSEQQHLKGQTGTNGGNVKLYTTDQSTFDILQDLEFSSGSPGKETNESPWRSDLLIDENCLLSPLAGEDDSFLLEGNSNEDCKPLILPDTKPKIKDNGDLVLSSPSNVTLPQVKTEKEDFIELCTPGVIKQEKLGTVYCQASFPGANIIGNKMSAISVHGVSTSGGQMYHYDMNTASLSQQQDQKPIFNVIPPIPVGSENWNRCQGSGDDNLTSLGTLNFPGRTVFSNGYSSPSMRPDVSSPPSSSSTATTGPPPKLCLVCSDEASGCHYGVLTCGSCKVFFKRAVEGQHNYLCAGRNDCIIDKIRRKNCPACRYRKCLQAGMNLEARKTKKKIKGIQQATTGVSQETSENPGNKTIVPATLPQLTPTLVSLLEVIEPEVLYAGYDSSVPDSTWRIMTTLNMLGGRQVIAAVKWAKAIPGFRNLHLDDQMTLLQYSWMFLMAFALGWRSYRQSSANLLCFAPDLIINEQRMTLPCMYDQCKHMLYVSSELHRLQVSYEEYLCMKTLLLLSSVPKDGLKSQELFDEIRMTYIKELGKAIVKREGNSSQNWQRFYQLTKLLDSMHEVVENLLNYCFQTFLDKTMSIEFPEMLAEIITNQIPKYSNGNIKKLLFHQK
Protocol: Briefly, purified human recombinant full-length glucocorticoid receptor (2 nM) was mixed with fluorescently labeled glucocorticoid (1 nM Fluormone GS Red) in the presence or absence of test compound. After two hour incubation at room temperature in the dark, the fluorescence polarization (FP) of the samples was measured. […] Test compounds were analyzed in the concentration range from 8.5E-05 μM to 5 μM.

[2] = system: AP-1 induced transcriptional activity; assay: Cellular Transrepressional Assay (AP-1 luciferase reporter in A549 cells, PMA-activated); type: cell-based; details: A549 cells with 7x AP-1 luciferase reporter, 10 ng/ml PMA, read-out: AP-1 (EC50, nM) (Cellular Transrepression Assay)
Protocol: To measure the ability of test molecules to inhibit AP-1 induced transcriptional activity an A549 cell was utilized which was stably transfected with a plasmid containing 7× AP-1 DNA binding sites (pAP-1-Luc plasmid, Stratagene Co. La Jolla, Calif.) followed by the gene for luciferase. Cells were activated with 10 ng/ml of […] (PMA) plus or minus test molecules for 7 hours. After 7 hours a luciferase reagent was added to measure luciferase enzymatic activity in the cell. After a 10 minute incubation of luciferase reagent with cells, luminescence was measured in a TopCount luminescence counter. Repression of AP-1 activity was calculated as the percentage decrease in the signal induced by PMA alone. Test molecules were analyzed in the concentration range from 0.1 nM to 40 μM. EC50s were determined by using standard curve fitting methods such as Excel fit (Microsoft Co.).

[3] = read-out: GR (Ki, nM) (GR Binding Assay (I))

SMILES | Ki [1, 3] | EC50 ([2]; Homo sapiens, A549, 7 h) | EC50 ([2]; 7 hours) | Ki ([1]; GR (Ki, nM) (GR Binding Assay (I)))
CC(C)(C(=O)Nc1nccs1)C(c1ccccc1)c1ccc2c(cnn2-c2ccccn2)c1 (stereo not shown) [Example 79, 2,2-dimethyl-3-phenyl-3-(1-(pyridin-2-yl)-1H-indazol-5-yl)-N-(thiazol-2-yl)propanamide] | 10 nM | 2480 nM |  | 
CC(C)(C(=O)Nc1nccs1)C(c1ccccc1)c1ccc2[nH]c(-c3ccccn3)cc2c1 (single isomer, unassigned) [111-enant B, 2,2-Dimethyl-3-phenyl-3-(2-(pyridin-2-yl)-1H-indol-5-yl)-N-(thiazol-2-yl)propanamide] | 25 nM |  | 777 nM | 
CC(C)(C(=O)Nc1nccs1)C(c1ccccc1)c1ccc2c(cnn2-c2ccncc2)c1 (stereo not shown) [Example 81, 2,2-dimethyl-3-phenyl-3-(1-(pyridin-4-yl)-1H-indazol-5-yl)-N-(thiazol-2-yl)propanamide] | 11 nM | 1290 nM |  | 
CC(C)(C(=O)Nc1nccs1)C(c1ccccc1)c1ccc2c(cnn2-c2cccnc2)c1 (stereo not shown) [Example 85, 2,2-dimethyl-3-phenyl-3-(1-(pyridin-3-yl)-1H-indazol-5-yl)-N-(thiazol-2-yl)propanamide] |  | 40 nM |  | 7.8 nM
CC(C)(C(=O)Nc1nncs1)C(c1ccccc1)c1ccc2c(cnn2-c2ccncc2)c1 (stereo not shown) [Example 82, 2,2-dimethyl-3-phenyl-3-(1-(pyridin-4-yl)-1H-indazol-5-yl)-N-(1,3,4-thiadiazol-2-yl)propanamide] | 20 nM | 491 nM |  | 
O=C(Nc1nccs1)C1CC1(c1ccccc1)c1ccc2c(cnn2-c2ccc(F)cc2)c1 (stereo not drawn) [Example 99, Cis-2-(1-(4-fluorophenyl)-1H-indazol-5-yl)-2-phenyl-N-(thiazol-2-yl)cyclopropanecarboxamide] |  |  | > 10000 nM | 
COCCCn1cc2cc(C(c3ccccc3)C(C)(C)C(=O)Nc3nncs3)ccc2n1 (stereo not shown) [Example 69, 3-(2-(3-methoxy-propyl)-2H-indazol-5-yl)-2,2-dimethyl-3-phenyl-N-(1,3,4-thiadiazol-2-yl)propanamide] | 84 nM | > 10000 nM |  | 
Cn1ccc(NC(=O)C(C)(C)C(c2ccccc2)c2ccc3c(cnn3-c3ccc(F)cc3)c2)n1 (stereo not shown) [Example 4, 3-(1-(4-fluorophenyl)-1H-indazol-5-yl)-2,2-dimethyl-N-(1-methyl-1H-pyrazol-3-yl)-3-phenylpropanamide] | 7 nM | 12 nM |  | 
Cc1cnc(NC(=O)C(C)(C)C(c2ccccc2)c2ccc3c(cnn3-c3ccc(F)cc3)c2)s1 (stereo not shown) [Example 17, 3-(1-(4-fluorophenyl)-1H-indazol-5-yl)-2,2-dimethyl-N-(5-methylthiazol-2-yl)-3-phenylpropanamide] | 11 nM | 49 nM |  | 
CC(C)(C(=O)Nc1ccsc1)C(c1ccccc1)c1ccc2c(cnn2-c2ccc(F)cc2)c1 (stereo not shown) [Example 11, 3-(1-(4-fluorophenyl)-1H-indazol-5-yl)-2,2-dimethyl-3-phenyl-N-(thiophen-3-yl)propanamide] | 11 nM | 73 nM |  | 
CSc1nnc(NC(=O)C(C)(C)C(c2ccccc2)c2ccc3c(cnn3-c3ccc(F)cc3)c2)s1 (stereo not shown) [Example 22, 3-(1-(4-fluorophenyl)-1H-indazol-5-yl)-2,2-dimethyl-N-(5-(methylthio)-1,3,4-thiadiazol-2-yl)-3-phenylpropanamide] | 29 nM | 840 nM |  | 
O=C(Nc1nccs1)C1CC1(c1ccccc1)c1ccc2c(cnn2-c2ccc(F)cc2)c1 (stereo not drawn) [Example 98, Trans-2-(1-(4-fluorophenyl)-1H-indazol-5-yl)-2-phenyl-N-(thiazol-2-yl)cyclopropanecarboxamide] | 15 nM |  | 34 nM | 
CC(C)(C(=O)Nc1nnn[nH]1)C(c1ccccc1)c1ccc2c(cnn2-c2ccc(F)cc2)c1 (stereo not shown) [Example 14, 3-(1-(4-fluorophenyl)-1H-indazol-5-yl)-2,2-dimethyl-3-phenyl-N-(1H-tetrazol-5-yl)propanamide] | 17 nM | > 10000 nM |  | 
CC(C)(C(=O)Nc1nccs1)C(c1ccccc1)c1ccc2c(-c3ccccc3)n[nH]c2c1 (stereo not shown) [Example 112, 2,2-Dimethyl-3-phenyl-3-(3-phenyl-1H-indazol-6-yl)-N-(thiazol-2-yl)propanamide] | 13 nM | 2410 nM |  | 
CC(C)(C(=O)Nc1cc(O)[nH]n1)C(c1ccccc1)c1ccc2c(cnn2-c2ccc(F)cc2)c1 (stereo not shown) [Example 15, 3-(1-(4-fluorophenyl)-1H-indazol-5-yl)-N-(5-hydroxy-1H-pyrazol-3-yl)-2,2-dimethyl-3-phenylpropanamide] | 318 nM | > 10000 nM |  | 
CN1CCC(n2ncc3cc(C(c4ccccc4)C(C)(C)C(=O)Nc4nccs4)ccc32)CC1 (stereo not shown) [Example 59, 2,2-dimethyl-3-(1-(1-methylpiper-idin-4-yl)-1H-indazol-5-yl)-3-phenyl-N-(thiazol-2-yl)propanamide] | 543 nM | > 10000 nM |  | 
O=C(CC(c1ccccc1)c1ccc2c(cnn2-c2ccc(F)cc2)c1)Nc1nncs1 (single isomer, unassigned) [136-enant A, 3-(1-(4-Fluorophenyl)-1H-indazol-5-yl)-3-phenyl-N-(1,3,4-thiadiazol-2-yl)propanamide] | 23 nM |  | > 10000 nM | 
CC(C)(C(=O)Nc1sccc1C#N)C(c1ccccc1)c1ccc2c(cnn2-c2ccc(F)cc2)c1 (stereo not shown) [Example 19, N-(3-cyanothiophen-2-yl)-3-(1-(4-fluorophenyl)-1H-indazol-5-yl)-2,2-dimethyl-3-phenylpropanamide] | 47 nM | > 10000 nM |  | 
CC(C)(C(=O)Nc1nccs1)C(c1ccccc1)c1ccc2[nH]c(-c3nccs3)cc2c1 (stereo not shown) [Example 117, 2,2-dimethyl-3-phenyl-N-(thiazol-2-yl)-3-(2-(thiazol-2-yl)-1H-indol-5-yl)propanamide] | 57 nM | 3610 nM |  | 
CC(C)(C(=O)Nc1nccs1)C(c1cc[n+]([O-])cc1)c1ccc2c(cnn2-c2ccc(F)cc2)c1 (stereo not shown) [Example 37, 3-(1-(4-Fluorophenyl)-1H-indazol-5-yl)-2,2-dimethyl-3-(pyridin-4-N-oxide-yl)-N-(thiazol-2-yl)propanamide] | 301 nM | 3350 nM |  | 
CC(C)Cn1ncc2cc(C(c3ccccc3)C(C)(C)C(=O)Nc3nncs3)ccc21 (stereo not shown) [Example 70, 3-(1-isobutyl-1H-indazol-5-yl)-2,2-dimethyl-3-phenyl-N-(1,3,4-thiadiazol-2-yl)propanamide] | 19 nM | 1020 nM |  | 
CC(C)(C(=O)Nc1nccs1)C(c1ccccc1)c1ccc2c(cnn2CCO)c1 (stereo not shown) [Example 57, 3-(1-(2-hydrox-ethyl)-1H-indazol-5-yl)-2,2-dimethyl-3-phenyl-N-(thiazol-2-yl)propanamide] | 20 nM | 205 nM |  | 
CCOC(=O)Cc1csc(NC(=O)C(C)(C)C(c2ccccc2)c2ccc3c(cnn3-c3ccc(F)cc3)c2)n1 (stereo not shown) [Example 28, ethyl 2-(2-(3-(1-(4-fluorophenyl)-1H-indazol-5-yl)-2,2-dimethyl-3-phenylpropanamido)thiazol-4-yl)acetate] | 20 nM | 647 nM |  | 
CC(C(=O)Nc1nncs1)C(c1ccccc1)c1ccc2c(cnn2-c2ccc(F)cc2)c1 (single isomer, unassigned) [Example 141-isomerC, 3-(1-(4-Fluorophenyl)-1H-indazol-5-yl)-2-methyl-3-phenyl-N-(1,3,4-thiadiazol-2-yl)propanamide] |  |  | 0.23 nM | 
